Test results published in patent US5104814A, “Assay kit and methods for neuroleptic drugs” (Schering Corporation, priority 1990, dated 1992).

Experiments:
[1] = biological target: T1, D-1 receptor (Rattus norvegicus, UniProt P18901); assay: Competition binding with [N-methyl-^3 H] Compound as radioligand in rat striatal tissue; conditions: rat striatum, radioligand 1.0 nM; read-out: KI, inhibition of binding of the labelled Compound
T1 construct: Striatal tissue was excised, pooled, and homogenized; from tissue; host or cells: striatum of male Sprague-Dawley rats, homogenized and washed by centrifugation
Experimental: (§1) Male Sprague-Dawley rats (200 to 250 g) from Charles River Breeding Laboratories, Mass. were used to obtain brain tissue. The rats were decapitated, their brains removed and placed on ice. Striatal tissue was excised, pooled, and homogenized (Brinkman Polytron, 10 sec) in 100 volumes (v/v) of ice cold 50mM Tris-HCl buffer, pH 7.4 (at 25° C.). The homogenate was centrifuged at 20,000×g for 10 min. The resultant pellet was rehomogenized in Tris-HCl buffer and centrifuged again. The final pellet was resuspended in 50 mM Tris-HCl buffer pH 7.4 containing 120 mM NaCl, 5 mM KCL, 2 mM CaCl2, and 1 mM MgCl2.
To test the receptor specificity of [N-methyl-^3 H]

[2] = tested on: dopamine D-1 receptors; conditions: J. Pharmacol. Exp. Ther., 226: 462 (1983); cited from earlier work
[3] = tested on: rat striatal membranes; assay: In vivo labeling of rat striatal membranes by [N-methyl-^3 H] Compound after subcutaneous injection
[4] = biological target: T1, D-1 receptor; assay: Saturation binding of [N-methyl-^3 H] Compound in rat striatum; conditions: binding as a function of radioligand concentration, 25 min
Experimental: as §1

[5] = Recovery of radioactivity from polypropylene assay tubes (adsorption onto surfaces); format: physicochemical; conditions: polypropylene tubes used in these experiments

T1 sequence (P18901 whole entry): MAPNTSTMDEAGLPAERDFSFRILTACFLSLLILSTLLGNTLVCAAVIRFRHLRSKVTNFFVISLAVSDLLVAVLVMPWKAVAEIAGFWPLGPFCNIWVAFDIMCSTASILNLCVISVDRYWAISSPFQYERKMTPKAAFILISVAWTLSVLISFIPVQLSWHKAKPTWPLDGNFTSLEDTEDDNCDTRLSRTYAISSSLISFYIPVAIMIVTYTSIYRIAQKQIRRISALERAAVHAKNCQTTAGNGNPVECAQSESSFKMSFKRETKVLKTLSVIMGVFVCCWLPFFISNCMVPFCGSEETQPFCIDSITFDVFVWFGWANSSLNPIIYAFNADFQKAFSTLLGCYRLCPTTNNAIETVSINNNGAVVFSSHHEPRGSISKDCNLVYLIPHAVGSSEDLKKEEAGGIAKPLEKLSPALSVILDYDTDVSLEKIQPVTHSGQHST

CN1CCc2cc(Cl)c(O)cc2[C@H]2c3ccccc3CC[C@@H]21 [Compound, [-]trans 6,7,7a,8,9,13b-hexahydro-3-chloro-2-hydroxy-N-methyl-5H-benzo[d]naphtho[2,1-b]-azepine]
Ki [1]: 3.6 nM

CN1CCc2cc(Cl)c(O)cc2[C@@H](c2ccccc2)C1 [R-(+)-8-chloro-2,3,4,5-tetrahydro-3-methyl-5-phenyl-1H-3-benzazepine-7-ol, reference compound]
selectivity for dopamine D-1 receptors over D-2 receptors [2]: 2500 fold
inhibition of striatal binding of [N-methyl-^3 H] Compound in vivo ([3]; 1 umole of inhibitor): 90%

[3H]C([3H])([3H])N1CCc2cc(Cl)c(O)cc2C2c3ccccc3CCC21 (stereo not drawn) [[N-methyl-^3 H] Compound]
KD (disassociation constant) [4]: 1.7 nM
time of optimal binding after subcutaneous injection ([3]; subcutaneous, striatal membranes): 1 h
recoverable radioactivity from the polypropylene tubes [5]: 97%
